Data set [1] can be described thus: Half-life in human liver microsomes (HLM). It counts as in vitro ADME. The following applies: pH 7.4, 1 μM compound, 0.78 mg/mL HLM, 37° C. On the procedure: Test compounds (1 μM) are incubated with 3.3 mM MgCl2 and 0.78 mg/mL HLM (HL101) in 100 mM potassium phosphate buffer (pH 7.4) at 37° C. on the 96-deep well plate. The reaction mixture is split into two groups, a non-P450 and a P450 group. NADPH is only added to the reaction mixture of the P450 group. An aliquot of samples of P450 group is collected at 0, 10, 30, and 60 min time point, where 0 min time point indicated the time when NADPH is added into the reaction mixture of P450 group. An aliquot of samples of non-P450 group is collected at −10 and 65 min time point. Collected aliquots are extracted with acetonitrile solution containing an internal standard. The precipitated protein is spun down in centrifuge (2000 rpm, 15 min). The compound concentration in supernatant is measured by LC/MS/MS system.
The half-life value is obtained by plotting the natural logarithm of the peak area ratio of compounds/internal standard versus time. The slope of the line of best fit through the points yields the rate of metabolism (k). This is converted to a half-life value using following equations: […]

The target of data set [2] is T1, VR1 (Homo sapiens, UniProt Q8NER1). Put plainly: Calcium uptake assay, low pH (proton) agonist. Also on record: expressed in transfected cells; host or cells: T-REx HEK 293 (Invitrogen), pcDNA5/TO vector. The following applies: HEK293; 0.3 μM compound; low pH (protons) as agonist; HEK 293 cells expressing hVR1; read-out: Low pH % Inhib. @ 0.3 μM. It counts as cell-based.
Target sequence in this assay (Q8NER1 whole entry): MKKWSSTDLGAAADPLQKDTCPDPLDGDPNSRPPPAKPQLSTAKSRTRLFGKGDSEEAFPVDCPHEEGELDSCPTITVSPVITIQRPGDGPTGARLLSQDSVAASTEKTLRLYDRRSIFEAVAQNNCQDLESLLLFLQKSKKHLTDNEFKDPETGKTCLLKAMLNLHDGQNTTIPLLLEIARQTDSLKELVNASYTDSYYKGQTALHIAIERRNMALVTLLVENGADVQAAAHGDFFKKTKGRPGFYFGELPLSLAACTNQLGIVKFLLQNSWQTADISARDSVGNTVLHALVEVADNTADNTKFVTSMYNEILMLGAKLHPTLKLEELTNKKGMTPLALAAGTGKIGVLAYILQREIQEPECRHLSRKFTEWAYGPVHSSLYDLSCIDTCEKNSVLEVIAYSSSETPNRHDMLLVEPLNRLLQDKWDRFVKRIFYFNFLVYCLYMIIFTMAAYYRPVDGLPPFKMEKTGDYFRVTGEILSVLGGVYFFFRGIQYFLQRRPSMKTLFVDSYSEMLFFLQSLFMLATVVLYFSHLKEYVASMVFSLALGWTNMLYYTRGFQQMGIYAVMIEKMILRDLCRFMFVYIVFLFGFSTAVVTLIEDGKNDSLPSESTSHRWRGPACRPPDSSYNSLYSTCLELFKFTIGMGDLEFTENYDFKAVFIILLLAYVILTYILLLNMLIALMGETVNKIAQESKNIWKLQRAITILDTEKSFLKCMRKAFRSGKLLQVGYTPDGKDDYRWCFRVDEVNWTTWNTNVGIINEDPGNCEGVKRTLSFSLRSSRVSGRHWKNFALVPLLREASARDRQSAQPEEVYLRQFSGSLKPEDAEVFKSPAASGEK

Data set [3] concerns the target T1, VR1. Kind of data set: Acid stimulation assay (FDSS 6000). The class given is cell-based. The following applies: final assay buffer pH5.8, 15 min pre-incubation. As for the experimental part: The Acid-induced changes in the intracellular calcium concentration were monitored using FDSS 6000 (Hamamatsu Photonics, Japan), a fluorometric imaging system. The cell suspension in resting buffer (HBSS supplemented with 10 mM HEPES, pH 7.4) was pre-incubated with varying concentrations of the test compounds or resting buffer (buffer control) for 15 minutes at room temperature under dark conditions. The cells were automatically added the stimulating solution (HBSS supplemented with MES, final assay buffer pH5.8) by the FDSS 6000.
Target sequence in this assay (Q8NER1 whole entry, species assumed): as the sequence (Q8NER1 whole entry) above

Data set [4] can be described thus: Pharmacokinetic evaluation following intravenous and oral administration in rats. It counts as in vivo. The following applies: male, Sprague-Dawley, plasma, rat; for bioavailability: AUCinf (PO)/AUCinf (IV), dose normalized, PO 5 mg/kg, read-out: Oral Bioavailability F (%); for clearance: non-compartmental analysis, read-out: In vivo Clearance (converted). As for the experimental part: Male Sprague-Dawley rats are acclimatized for at least 24 hours prior to experiment initiation. During acclimation period, all animals receive food and water ad libitum. However, food but not water is removed from the animal's cages at least 12 hours before initiation of the experiment. During the first 3 hours of experimentation, the animals receive only water ad libitum. At least three animal each are tested for intravenous and oral dosage. For intravenous formulation, compounds were dissolved (0.25 to 1 mg/mL) in a mixture of 3% dimethyl sulfoxide, 40% PEG 400 and the rest percentage of 40% Captisol in water (w/v). For oral formulation, compounds of this invention are dissolved (2 mg/mL) in a mixture of 5% of 10% Tween 80 in water (v/v) and 95% of 0.5% methyl cellulose in water (w/v). The animals are weighed before dosing. The determined body weight is used to calculate the dose volume for each animal.
Dose volume(mL/kg)=1 mg/kg/formulation concentration(mg/mL)
In instances where the formulation concentrations were less than 0.5 mg/mL, the dosing volume is about 2 mL/kg. PO rats are typically dosed through oral gavage at 2.5 mL/kg to achieve a dose level of 5 mg/kg. For IV dosing, blood samples are collected (using a pre-heparinized syringe) via the jugular vein catheter at 2, 5, 15, 30, 60, 120, 180, 300, 480, and 1440 minutes post dosing. For PO dosing, blood samples are collected (using a pre-heparinized syringe) via the jugular vein catheter before dosing and at 5, 15, 30, 60, 120, 180, 300, 480, and 1440 minutes post dosing. About 250 uL of blood is obtained at each time point from the animal. Equal volumes of 0.9% normal saline are replaced to prevent dehydration. The whole blood samples are maintained on ice until centrifugation. Blood samples are then centrifuged at 14,000 rpm for 10 minutes at 4° C. and the upper plasma layer transferred into a clean vial and stored at −80° C. The resulting plasma samples are then analyzed by liquid chromatography-tandem mass spectrometry. Following the measurement of plasma samples and dosing solutions, plasma concentration-time curve is plotted. Plasma exposure is calculated as the area under the concentration-time curve extrapolated to time infinite (AUCinf). The AUCinf is averaged and the oral bioavailability (% F) for individual animal is calculated as:
AUCinf (PO)/AUCinf (IV), normalized to their respective dose levels. The % F is reported as the mean % F of all animals dosed orally with the compound of the invention at the specified level (Table 6).
In vivo clearance in the rat was calculated by conducting a non-compartmental analysis of the pharmacokinetic profile using WinNonlin software.

The structures appear in SMILES notation.

A word on the half-life: it is how long it takes for the measured level to halve. One may read the IC50 as the concentration needed to halve the response being measured. One may read the bioavailability as the share of a dose that reaches the circulation, judged against a reference dose that is usually intravenous.

`Cc1cc(/C=C/C(F)(F)F)ccc1C(=O)Nc1cnc2scnc2c1` [Compound 415, (E)-2-methyl-N-(thiazolo[5,4-b]pyridin-6-yl)-4-(3,3,3-trifluoroprop-1-enyl)benzamide] showed a half-life at 1 μM in data set [1] of 289 min. The inhibition at 0.3 µM at VR1 [2] is 130%. The same compound came in with an IC50 at VR1 [3] of 0.008 µM. Further, in data set [4], the bioavailability is 45% and the clearance is 0.05 L/h/kg.
Regarding `Cc1cc(/C=C/C(F)(F)F)ccc1C(=O)Nc1cccc2c1CC(O)CC2` (racemic) [Compound 309, (E)-N-(7-hydroxy-5,6,7,8-tetrahydronaphthylen-1-yl)-2-methyl-4-(3,3,3-trifluoroprop-1-enyl)benzamide], the half-life at 1 μM in data set [1] was 135 min. For the same compound, the inhibition at 0.3 µM at VR1 [2] was determined as 107%. At VR1 [3], this compound displayed an IC50 of 0.002 µM. Also, in data set [4], the bioavailability came to 29% and the clearance is 0.461 L/h/kg.
On to `Cc1cc(/C=C/C(F)(F)F)ccc1C(=O)Nc1ccc2cc(COCCO)cnc2c1` [Compound 305, (E)-N-(3-((2-Hydroxyethoxy)methyl)quinolin-7-yl)-2-methyl-4-(3,3,3-trifluoroprop-1-enyl)benzamide], for which, in data set [1], the half-life at 1 μM was 16.8 min. The inhibition at 0.3 µM at VR1 [2] worked out at 105%. Besides, on VR1 [3], the half-maximal inhibitory concentration (IC50) stood at 0.012 µM. Moreover, in data set [4], the bioavailability was > 100% and the clearance was 0.674 L/h/kg.
Take `Cc1cc(/C=C/C(F)(F)F)ccc1C(=O)Nc1cccc2ccc(O)cc12` [Compound 302, (E)-N-(7-hydroxynaphthalen-1-yl)-2-methyl-4-(3,3,3-trifluoroprop-1-enyl)benzamide]: the half-life at 1 μM in data set [1] is 36.6 min. This compound registered an IC50 at VR1 [3] of 0.001 µM. Moreover, in data set [4], the bioavailability was 2% and the clearance is 4.04 L/h/kg.
Turning to `Cc1cc(/C=C/C(F)(F)F)ccc1C(=O)Nc1ccc2cc(C(C)(C)O)cnc2c1` [Compound 303, (E)-N-(3-(2-Hydroxypropan-2-yl)quinolin-7-yl)-2-methyl-4-(3,3,3-trifluoroprop-1-enyl)benzamide], the half-life at 1 μM in data set [1] was 57.6 min. The inhibition at 0.3 µM at VR1 [2] was found to be 90%. At VR1 [3], half-maximal inhibition (IC50) required 0.037 µM. Besides, in data set [4], the bioavailability is > 100% and the clearance was 0.677 L/h/kg.
On to `Cc1nc2cc(NC(=O)c3ccc(/C=C/C(F)(F)F)cc3C)cnc2s1` [Compound 412, (E)-2-methyl-N-(2-methylthiazolo[5,4-b]pyridin-6-yl)-4-(3,3,3-trifluoroprop-1-enyl)benzamide], for which, in data set [1], the half-life at 1 μM is 48.6 min. In addition, the inhibition at 0.3 µM on VR1 [2] is 105%. This compound gave an IC50 at VR1 [3] of 0.02 µM. In addition, in data set [4], the bioavailability was determined as 11% and the clearance was 0.43 L/h/kg.
On to `Cc1cc(/C=C/C(F)(F)F)ccc1C(=O)Nc1ccc2cc(C(C)O)cnc2c1` (stereo not shown) [Compound 304, (E)-N-(3-(1-hydroxyethyl)quinolin-7-yl)-2-methyl-4-(3,3,3-trifluoroprop-1-enyl)benzamide], for which, in data set [1], the half-life at 1 μM is 51 min. Further, the inhibition at 0.3 µM on VR1 [2] is 98%. Further, at VR1 [3], the IC50 stood at 0.004 µM. Further, in data set [4], the bioavailability is > 100% and the clearance is 1.24 L/h/kg.
Take `Cc1cc(/C=C/C(F)(F)F)ccc1C(=O)Nc1ccc2c(c1)C(O)CCC2` (stereo not shown) [Compound 307, (E)-N-(8-hydroxy-5,6,7,8-tetrahydronaphthylen-2-yl)-2-methyl-4-(3,3,3-trifluoroprop-1-enyl)benzamide]: at VR1 [2], the inhibition at 0.3 µM stood at 75%. The compound further registered an IC50 at VR1 [3] of 0.118 µM.
As for `Cc1cc(/C=C/C(F)(F)F)ccc1C(=O)Nc1cnc2c(c1)CCCC2` [Compound 312], the inhibition at 0.3 µM at VR1 [2] was determined as 97%. On VR1 [3], this compound yielded an IC50 of 0.103 µM.
As to `Cc1cc(/C=C/C(F)(F)F)ccc1C(=O)Nc1ccc2sc(C(C)O)nc2c1` (stereo not shown) [Compound 403], the inhibition at 0.3 µM at VR1 [2] amounted to 81%. On VR1 [3], the IC50 came to 0.147 µM.

The values above are taken from patent US20100004222A1, “Amide Derivatives as Ion-Channel Ligands and Pharmaceutical Compositions and Methods of Using the Same” (Renovis, Inc., priority 2006, published 2010).
